Entries after “also recorded” stand apart in the source; their conditions may differ. Bounds are passed on as bounds.

These results are taken from patent US11406642B2, “DNP and DNP prodrug treatment of neuromuscular, neurodegenerative, autoimmune, developmental, traumatic brain injury, concussion, dry eye disease, hearing loss and/or metabolic diseases” (priority 2016, dated 2022).

In one series the test system is spiny neurons. As to the kind of experiment: Model of Huntington's disease. The format is in vivo. Conditions: treatment for over 17-weeks. The text has this:
In one embodiment, the invention provides compositions and methods for treating Huntington's disease. […] DNP should prevent muscle loss since it reduces mitochondrial osmotic swelling by reducing intra-mitochondrial calcium concentration and inducing BDNF, which is a myokine (muscle protectant) outside of the brain.

The next series concerns dopaminergic neurons. The series can be described thus: Parkinson model using 6-OHDA. Format: in vivo. Conditions: chronic treatment. The text has this: In one embodiment, the invention provides compositions and methods for treating neurodegenerative diseases such as Alzheimer's disease, Parkinson, and Huntington's disease. It is believed that the complete lack of historic success is due to most pharmaceutical industries focusing on a downstream event, such as plaques/tangles, whereas the issue is likely upstream at the mitochondria causing high cellular stress.

A further series in a line: 28-day toxicity studies. Format: in vivo. Conditions: low doses. The text has this: Overt reactive oxygen species (ROSs) can be produced due to noise and certain ototoxic drugs that can damage the hair cells of the ear, resulting in either temporary or permanent hearing loss. Exposure to blast waves and continuous noise not only damaged the inner ear, but caused cell death in the hippocampus, suppressed neurogenesis and impaired memory function. Aging as well can manifest in mitochondrial dysfunction leading to hearing loss. It is emerging that attempts to treat hearing loss by targeting downstream issues is not very effective. In one embodiment, the compositions and methods of the invention relate to targeting oxidative stress upstream at the mitochondria that may be causative for many disorders. There have been a variety of attempts to lower cellular stress, such as administering anti-oxidants, however these drugs have limited tissue penetration into the brain and lower ROSs after they have been formed. […] While not being bound to theory, it is postulated that DNP modulates the mitochondrial membrane potential having a significant impact at preventing ROS formation in isolated mitochondria and in the treated wildtype mice. DNP treatment 3-hours post-ischemia reduced cerebral infarct volume 40% by protecting the penumbra or “threaten tissue” and could provide similar benefits after a blast to protect inner hair cells from eminent cell death. […]

The nature of series [1]: Stability of II-38 in hydrochloric acid buffer, pH 1.2. The format is physicochemical. Conditions: pH 1.2, 37° C., 5% DMSO, within 8 h. On the procedure:
(§1) pH: Stability in aqueous buffers (37° C., pHs 1.2 and 7.4)
(§2) HPLC analysis was carried out on an Agilent 1200 Infinity Series Quatpump, equipped with a photodiode array detector and a computer integrating apparatus. An Inertsil ODS-3 column, C18, 5 μm, 4.6×50 mm (GL Science Inc. Japan) protected with a guard column: Alltima C18, 5 μm, 4.6×7.5 mm (Grace Discovery Sciences, IL, USA) was used as the stationary phase. An isocratic method with a mobile phase consisting of water/acetonitrile (70:30) containing 0.05% formic acid in each was used. A flow rate of 0.9 mL/min was used and detection was carried out at a UV wavelength of 250 nm.
Hydrochloric acid, pH 1.2 buffer was prepared. II-38 (2.5 mg) was dissolved in 0.125 mL of DMSO (5%). Reactions were initiated by adding II-38 dissolved in DMSO slowly and gradually to a total volume of 2.375 mL of HCl buffer, pH 1.2 (Table 1) in a Franz cell diffusion chamber preheated to 37° C. The solution was mixed for 30 sec every half an hour using magnetic stirrer. Samples of 20 μL (20 μg/mL of II-38) were collected at 0, 1, 2, 4, 6 and 8 h. Each sample was mixed with acetonitrile QS to 1 mL, vortex-mixed for 30 sec and centrifuged at 10,000 rpm at room temp. A volume of 10 μL of the supernatant was injected into the HPLC spectrometer for detection of 2,4-DNP and II-38 in HCl buffer, pH 1.2.

A short description of series [2]: Stability in simulated gastric fluid (SGF), pH 1.2. Format: in vitro ADME. Conditions: pH 1.2, 37° C. As to the method:
GI: Stability in simulated gastric fluid (USP, 37° C.)
as §2
To formulate 1 mg/mL of II-38 in SGF, 3.1 mg of II-38 was dissolved in 0.155 mL of DMSO (i.e. 5%) and added slowly and gradually to a total volume of 2.945 mL of preheated SGF (Table 3) in a cell diffusion chamber preheated to 37° C. The solution was mixed for 30 sec. every half an hour using magnetic stirrer. Samples of 20 μL (20 μg/mL of II-38) were collected at 0, 1, 2, 4, 6 and 8 h. Each sample was mixed with acetonitrile QS to 1 mL, vortex-mixed for 30 sec and centrifuged at 10,000 rpm at room temp. A volume of 10 μL of the supernatant was injected into the HPLC spectrometer.

Series [3] in a line: Stability of II-38 in phosphate buffer, pH 7.4. The format is physicochemical. Conditions: pH 7.4, 37° C., 5% DMSO, within 8 h. On the procedure:
as §1, §2
Formulation of II-38 in phosphate buffer (PB): to formulate 1 mg/mL of II-38 in PB, 2.6 mg of II-38 was formulated in 0.13 mL of DMSO (i.e. 5%) and added slowly and gradually to a total volume of 2.47 mL of preheated PB (Table 2) in a Franz cell diffusion chamber preheated to 37° C. The solution was mixed for 30 sec every half an hour using magnetic stirrer. Samples of 20 μL (20 ug/mL of II-38) were collected at 0, 0.5, 1, 2, 4, 6 and 8 h. Each sample was mixed with acetonitrile QS to 1 mL, vortex-mixed for 30 sec and centrifuged at 10,000 rpm at room temp. A volume of 10 μL of the supernatant was injected into the HPLC spectrometer.

For `O=[N+]([O-])c1ccc(O)c([N+](=O)[O-])c1` [2,4-DNP, 2,4-dinitrophenol], the “effect on spiny neurons” value in the series with spiny neurons is reported as “protection on the spiny neurons”. In addition, the “protection of dopaminergic neurons” value in the series with dopaminergic neurons is “positive protective effect”. Besides, in “28-day toxicity studies”, the “Safety Index” value is reported as at least 10 × and the toxicity result is “not toxic”.

Take `O=C(Oc1ccc([N+](=O)[O-])cc1[N+](=O)[O-])N1CCOCC1` [II-38, 2,4-Dinitrophenyl morpholine-4-carboxylate]: the “hydrolysis / stability in HCl buffer” value in series [1] is given as “no significant hydrolysis; also recorded: did not show significant hydrolysis; also recorded: no evidence of 2,4-DNP formation”. Further, the “stability in SGF” value in series [2] is “stable”. For the same compound, in series [3], the “hydrolysis / stability in phosphate buffer” value was “no significant hydrolysis; also recorded: did not show significant hydrolysis; also recorded: no evidence of 2,4-DNP formation”.
